The target in the test is T1, hP2Y2R (Homo sapiens, UniProt P41231).
T1 construct: The 1321N1 cells expressing wild-type P2Y2R (P2Y2R-1321N1) were gifted by Dr. Elizabeth Rosethorne; expressed in transfected cells; host or cells: 1321N1 astrocytoma cells (P2Y2R-1321N1), gifted
Briefly: Calcium-mobilization assay in P2Y2-1321N1 cells (antagonism of UTPγS). The class given is cell-based. The following applies: for Kb / hP2Y2 pKb: Gaddum equation, shift of UTPγS concentration–response curve by a single antagonist concentration, mean ± SEM; for Kb: read-out: hP2Y2 pKb (converted); for hP2Y2R antagonist activity in words: calcium-mobilization assay.

SMILES strings stand for the structures. Read-outs that look alike come from different tables or passages of the source.

T1 sequence (P41231 whole entry): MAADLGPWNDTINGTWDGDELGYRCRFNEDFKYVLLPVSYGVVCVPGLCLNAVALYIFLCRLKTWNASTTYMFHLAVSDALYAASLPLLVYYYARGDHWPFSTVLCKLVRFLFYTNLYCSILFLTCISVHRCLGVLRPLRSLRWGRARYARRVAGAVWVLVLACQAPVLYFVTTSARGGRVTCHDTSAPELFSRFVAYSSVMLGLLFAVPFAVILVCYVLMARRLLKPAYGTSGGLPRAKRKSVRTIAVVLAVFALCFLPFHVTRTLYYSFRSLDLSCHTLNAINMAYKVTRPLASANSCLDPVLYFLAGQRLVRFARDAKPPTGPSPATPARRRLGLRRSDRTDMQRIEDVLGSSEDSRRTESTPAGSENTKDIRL

As to `COCCNc1nc2c(s1)C=Cc1cc(Cl)ccc1C2c1cn(C)c(=O)[nH]c1=S` (racemic) [Example 14, 5-(7-Chloro-2-((2-methoxyethyl)amino)-4H-benzo[5,6]cyclohepta[1,2-d]thiazol-4-yl)-1-methyl-4-thioxo-3,4-dihydropyrimidin-2(1H)-one], for the setting “Table 2”, the Kb was 251 nM.

With `Cc1ccc2c(c1)C=Cc1cc(C)ccc1C2c1cn(Cc2nc(C(=O)Nc3nnn[nH]3)cs2)c(=O)[nH]c1=S` [Example 3, 2-((5-(2,8-Dimethyl-5H-dibenzo[a,d][7]annulen-5-yl)-2-oxo-4-thioxo-3,4-dihydropyrimidin-1(2H)-yl)methyl)-N-(1H-tetrazol-5-yl)thiazole-4-carboxamide], the Kb (Table 1) was 77.6 nM.

`Cc1ccc2c(c1)C=Cc1cc(C)ccc1C2c1cn(C)c(=O)[nH]c1=S` [Example 4, 5-(2,8-Dimethyl-5H-dibenzo[a,d][7]annulen-5-yl)-1-methyl-4-thioxo-3,4-dihydropyrimidin-2(1H)-one]: the “hP2Y2R antagonist activity in words” value was “inactive”. For the same compound, the “hP2Y2 pKb” value (Table 1) is “IA ^b (IA = inactive; i.e., less than a 50% inhibition of the response to 0.1 μM UTPγS in the presence of a 10 μM concentration of the compound)”.

As to `Cc1nc2c(s1)C=Cc1cc(Cl)ccc1C2c1cn(Cc2nc(C(=O)Nc3nnn[nH]3)cs2)c(=O)[nH]c1=S` (centres unmarked) [Example 5, 2-((5-(7-Chloro-2-methyl-4H-benzo[5,6]cyclohepta[1,2-d]thiazol-4-yl)-2-oxo-4-thioxo-3,4-dihydropyrimidin-1(2H)-yl)methyl)-N-(1H-tetrazol-5-yl)thiazole-4-carboxamide], the Kb (Table 1) is 331 nM.

For `Cc1nc2c(s1)C=Cc1cc(Cl)ccc1C2c1cn(C)c(=O)[nH]c1=S` (centres unmarked) [Example 6, 5-(7-Chloro-2-methyl-4H-benzo[5,6]cyclohepta[1,2-d]thiazol-4-yl)-1-methyl-4-thioxo-3,4-dihydropyrimidin-2(1H)-one], for the setting “Table 1”, the Kb was 1020 nM.

For `Cn1cc(C2c3ccc(Cl)cc3C=Cc3sc(N)nc32)c(=S)[nH]c1=O` (centres unmarked) [Example 7, 5-(2-Amino-7-chloro-4H-benzo[5,6]cyclohepta[1,2-d]thiazol-4-yl)-1-methyl-4-thioxo-3,4-dihydropyrimidin-2(1H)-one], the Kb (Table 2) is 275 nM.

Turning to `Cn1cc(C2c3ccc(Cl)cc3C=Cc3sc(Nc4ccccc4)nc32)c(=S)[nH]c1=O` (centres unmarked) [Example 8, 5-(7-Chloro-2-(phenylamino)-4H-benzo[5,6]cyclohepta[1,2-d]thiazol-4-yl)-1-methyl-4-thioxo-3,4-dihydropyrimidin-2(1H)-one], the “hP2Y2R antagonist activity in words” value is “inactive”. Further, the “hP2Y2 pKb” value (Table 2) is “IA ^b (3) (IA = inactive; i.e., less than a 50% inhibition of the response to 0.1 μM UTPγS in the presence of a 10 μM concentration of the compound (n = 3))”.

`Cn1cc(C2c3ccc(Cl)cc3C=Cc3sc(NCc4ccccc4)nc32)c(=S)[nH]c1=O` (centres unmarked) [Example 9, 5-(2-(Benzylamino)-7-chloro-4H-benzo[5,6]cyclohepta[1,2-d]thiazol-4-yl)-1-methyl-4-thioxo-3,4-dihydropyrimidin-2(1H)-one]: the “hP2Y2R antagonist activity in words” value was “inactive”. Moreover, the “hP2Y2 pKb” value (Table 2) was “IA (3) (IA = inactive; i.e., less than a 50% inhibition of the response to 0.1 μM UTPγS in the presence of a 10 μM concentration of the compound (n = 3))”.

`Cn1cc(C2c3ccc(Cl)cc3C=Cc3sc(NCCc4ccccc4)nc32)c(=S)[nH]c1=O` (centres unmarked) [Example 10, 5-(7-Chloro-2-(phenethylamino)-4H-benzo[5,6]cyclohepta[1,2-d]thiazol-4-yl)-1-methyl-4-thioxo-3,4-dihydropyrimidin-2(1H)-one]: the “hP2Y2R antagonist activity in words” value is “inactive”. The “hP2Y2 pKb” value (Table 2) is “IA (3) (IA = inactive; i.e., less than a 50% inhibition of the response to 0.1 μM UTPγS in the presence of a 10 μM concentration of the compound (n = 3))”.

As for `CN1CCN(c2nc3c(s2)C=Cc2cc(Cl)ccc2C3c2cn(C)c(=O)[nH]c2=S)CC1` (centres unmarked) [Example 11, 5-(7-Chloro-2-(4-methylpiperazin-1-yl)-4H-benzo[5,6]cyclohepta[1,2-d]thiazol-4-yl)-1-methyl-4-thioxo-3,4-dihydropyrimidin-2(1H)-one], the “hP2Y2R antagonist activity in words” value was “inactive”. For the same compound, the “hP2Y2 pKb” value (Table 2) was “IA (3) (IA = inactive; i.e., less than a 50% inhibition of the response to 0.1 μM UTPγS in the presence of a 10 μM concentration of the compound (n = 3))”.

Take `Cn1cc(C2c3ccc(Cl)cc3C=Cc3sc(N4CCOCC4)nc32)c(=S)[nH]c1=O` (centres unmarked) [Example 12, 5-(7-Chloro-2-morpholino-4H-benzo[5,6]cyclohepta[1,2-d]thiazol-4-yl)-1-methyl-4-thioxo-3,4-dihydropyrimidin-2(1H)-one]: the “hP2Y2R antagonist activity in words” value is “inactive”. For the same compound, the “hP2Y2 pKb” value (Table 2) is “IA (3) (IA = inactive; i.e., less than a 50% inhibition of the response to 0.1 μM UTPγS in the presence of a 10 μM concentration of the compound (n = 3))”.

For `Cn1cc(C2c3ccc(Cl)cc3C=Cc3sc(N4CCCCC4)nc32)c(=S)[nH]c1=O` (centres unmarked) [Example 13, 5-(7-Chloro-2-(piperidin-1-yl)-4H-benzo[5,6]cyclohepta[1,2-d]thiazol-4-yl)-1-methyl-4-thioxo-3,4-dihydropyrimidin-2(1H)-one], the “hP2Y2R antagonist activity in words” value is “inactive”. For the same compound, the “hP2Y2 pKb” value (Table 2) is “IA (3) (IA = inactive; i.e., less than a 50% inhibition of the response to 0.1 μM UTPγS in the presence of a 10 μM concentration of the compound (n = 3))”.

On to `COCCCNc1nc2c(s1)C=Cc1cc(Cl)ccc1C2c1cn(C)c(=O)[nH]c1=S` (centres unmarked) [Example 15, 5-(7-Chloro-2-((3-methoxypropyl)amino)-4H-benzo[5,6]cyclohepta[1,2-d]thiazol-4-yl)-1-methyl-4-thioxo-3,4-dihydropyrimidin-2(1H)-one], for which the Kb (Table 2) is 275 nM.

For the compound `CCOCCNc1nc2c(s1)C=Cc1cc(Cl)ccc1C2c1cn(C)c(=O)[nH]c1=S` (centres unmarked) [Example 16, 5-(7-Chloro-2-((2-ethoxyethyl)amino)-4H-benzo[5,6]cyclohepta[1,2-d]thiazol-4-yl)-1-methyl-4-thioxo-3,4-dihydropyrimidin-2(1H)-one], the Kb (Table 2) was 186 nM.

With `CC(C)OCCNc1nc2c(s1)C=Cc1cc(Cl)ccc1C2c1cn(C)c(=O)[nH]c1=S` (centres unmarked) [Example 17, 5-(7-Chloro-2-((2-isopropoxyethyl)amino)-4H-benzo[5,6]cyclohepta[1,2-d]thiazol-4-yl)-1-methyl-4-thioxo-3,4-dihydropyrimidin-2(1H)-one], the Kb (Table 2) is 324 nM.

With `Cn1cc(C2c3ccc(Cl)cc3C=Cc3sc(NCCOc4ccccc4)nc32)c(=S)[nH]c1=O` (centres unmarked) [Example 18, 5-(7-Chloro-2-((2-phenoxyethyl)amino)-4H-benzo[5,6]cyclohepta[1,2-d]thiazol-4-yl)-1-methyl-4-thioxo-3,4-dihydropyrimidin-2(1H)-one], the “hP2Y2R antagonist activity in words” value was “inactive”. The “hP2Y2 pKb” value (Table 2) is “IA (3) (IA = inactive; i.e., less than a 50% inhibition of the response to 0.1 μM UTPγS in the presence of a 10 μM concentration of the compound (n = 3))”.

With `Cn1cc(C2c3ccc(Cl)cc3C=Cc3sc(-c4ccccc4)nc32)c(=S)[nH]c1=O` (centres unmarked) [Example 19, 5-(7-Chloro-2-phenyl-4H-benzo[5,6]cyclohepta[1,2-d]thiazol-4-yl)-1-methyl-4-thioxo-3,4-dihydropyrimidin-2(1H)-one], the “hP2Y2R antagonist activity in words” value is listed as “complete loss of affinity”. Further, the “hP2Y2 pKb” value (Table 2) was “IA (3) (IA = inactive; i.e., less than a 50% inhibition of the response to 0.1 μM UTPγS in the presence of a 10 μM concentration of the compound (n = 3))”.

For the origin of these results see article PMC6026847, “Synthesis and Evaluation of the First Fluorescent Antagonists of the Human P2Y2 Receptor Based on AR-C118925” (Journal of Medicinal Chemistry, 2018).
